Tests used:
human PBMCs = experiment: Human PBMC - tumor cell co-culture assay (IL-2 by HTRF); assay type: cell-based; conditions: anti-CD3 and anti-CD28 stimulation, 48 hours
Protocol: 4T1, a Nectin-4 negative murine mammary gland epithelial cancer cell (4T1 Nectin-4 −ve; 4T1-Parental) and its genetically modified version expressing murine Nectin-4 on the cell surface (4T1 Nectin-4 +ve; clone 4T1-D02) were cultured to 80% confluency in vitro in RPMI1640 medium supplemented with 10% heat-inactivated FBS, 1× Penicillin/Streptomycin, 1× L-Glutamine, 20 mM HEPES and 1×NEAA (RPMI working medium). Tumor cells were trypsinized and washed two times at 1500 rpm for 5 minutes in RPMI1640 working medium prewarmed to 37° C. Four thousand tumor cells in 25 μl were plated per well in a sterile 384 well cell culture plate. Frozen human PBMCs were thawed and washed one time at 1250 rpm for 5 minutes in prewarmed RPMI1640 working medium. 20000 viable PBMCs in 50 μl RPMI1640 working medium supplemented with 250 ng/ml (2× concentration) of human anti-CD3 (clone OKT3) and 500 ng/ml (2× concentration) of human anti-CD28 (clone CD28.2) were added per respective wells containing tumor cells in 25 μl medium to obtain a […] ratio for tumor cells and PBMCs. Test compounds in DMSO were diluted in RPMI1640 working medium. An equivalent amount of DMSO was added to assay controls. […] Culture supernatant was collected at 48 hours post-treatment, and IL-2 concentrations were measured using HTRF assays (CIS Bio). Data were analyzed using GraphPad Prism.

OX40 = biological target: T1, OX40 (Homo sapiens, UniProt P43489); experiment: Promega OX40 cell-activity assay in co-culture with tumor cells (Nectin-4 positive 4T1-D02); assay type: cell-based; conditions: co-culture with Nectin-4 positive 4T1-D02 cells; compared to OX40L and non-binding control BCY12968
T1 construct: host or cells: OX40 Jurkat cells (NF-kB luciferase reporter)
T1 sequence (P43489 29-277): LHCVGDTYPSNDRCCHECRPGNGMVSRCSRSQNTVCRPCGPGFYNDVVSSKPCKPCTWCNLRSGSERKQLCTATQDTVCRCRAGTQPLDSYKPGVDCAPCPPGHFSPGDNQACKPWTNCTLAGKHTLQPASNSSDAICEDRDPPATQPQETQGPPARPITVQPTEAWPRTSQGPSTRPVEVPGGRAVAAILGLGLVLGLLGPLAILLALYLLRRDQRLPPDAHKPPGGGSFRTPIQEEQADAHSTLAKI
Protocol: Promega have developed an OX40 cell-activity assay that uses NF-κB luciferase luminescence as a read-out of OX40 activation in Jurkat cells (Promega CS197704). On the day of the experiment, prepare medium by thawing FBS and adding 5% FBS to RPMI-1640. Thaw OX40 Jurkat cells in the water-bath and then add 500 μl cells to 11.5 ml pre-warmed 5 FBS RPMI-1640 medium. Add 55 μl cells/well to white cell culture plates. Harvest tumor cells from culture. 4T1 is a Nectin-4 negative murine mammary gland epithelial cancer cell and it was genetically modified to express murine Nectin-4 on the cell surface (4T1 Nectin-4 positive; clone 4T1-D02). Tumor cells were cultured to 80% confluency in vitro in RPMI1640 medium supplemented with 10% heat-inactivated FBS, 1× Penicillin/Streptomycin, 1×L-Glutamine, 20 mM HEPES and 1×NEAA (RPMI working medium). Tumor cells were trypsinized and washed two times at 1500 rpm for 5 minutes in RPMI1640 working medium prewarmed to 37° C. Count cells and resuspend at 2,000,000 cells/mL in R5 media (for 10,000 cells/well). Add 5 μL of tumour cells per well.
Proceed to dilute agonists at concentration giving the maximum fold induction and then titrate down the amount in a sterile 96 well-plate. Prepare enough reagent for duplicate samples and then perform ⅓ dilution series or 1/10 dilution series. Include positive control OX40L trimer (AcroBiosystems, R&D systems) and negative control monomeric or non-binding peptides. Add 20 μl of agonist as duplicate samples or 5% FBS RPMI-1640 alone as background control.
Co-incubate cells together with agonists for 6 hours at 37° C., 5% CO2. After 6 hours, thaw Bio-Glo™ and develop the assay at room-temperature. Add 80 μl Bio-Glo™ per well and incubate 5-10 min. Read luciferase signal on CLAIROStar plate-reader using the MARS program and normalize the fold induction relative to background (medium alone). Analyse data by transforming the data to x=log (X), then plot log (agonist) vs. response variable slope (4 parameters) to calculate EC50 values.

## CSCC[C@@H]1NC(=O)[C@@H]2CSCCC(=O)N3CN(CN(C3)C(=O)CCSC[C@H](NC(=O)CCOCCOCCOCCOCCOCCOCCOCCOCCOCCOCCOCCOCCn3cc(CCC(=O)NCCCC[C@H](NC(=O)[C@H](C)NC(=O)[C@@H]4CSCCC(=O)N5CN6CN(C5)C(=O)CCSC[C@H](NC(=O)[C@@H]5CCCN5C(=O)[C@H](CO)NC(=O)[C@H](Cc5ccc(O)cc5)NC(=O)[C@H](CC(C)C)NC(=O)[C@@H](NC(=O)[C@H](C)N)CSCCC6=O)C(=O)N[C@@H](Cc5c[nH]c6ccccc56)C(=O)N[C@@H](Cc5c[nH]cn5)C(=O)N5CCC[C@H]5C(=O)N[C@@H](CC(C)C)C(=O)N[C@@H](CC(N)=O)C(=O)N[C@@H](CC(=O)O)C(=O)N4)C(N)=O)nn3)C(=O)N3CCC[C@H]3C(=O)N[C@@H](Cc3cccc4ccccc34)C(=O)N[C@H](CC(=O)O)C(=O)N2)C(=O)CCSC[C@@H](C(N)=O)NC(=O)[C@H](Cc2c[nH]c3ccccc23)NC(=O)[C@@H]2C[C@@H](O)CN2C(=O)[C@@H]2CCCN2C(=O)[C@H]([C@@H](C)O)NC(=O)[C@H](CO)NC(=O)[C@H](Cc2c[nH]c3ccccc23)NC(=O)[C@H](CC(=O)O)NC(=O)[C@H](CCCCNC(=N)N)NC1=O [BCY12141]
Human PBMCs; 4T1 cells without Nectin-4 expression
  IL-2 levels: comparable to the control baseline CD3+CD28 stimulation
Human PBMCs; Nectin-4 expressing 4T1 cells
  production of the cytokine IL-2 by human PBMCs: induced the production of the cytokine IL-2
OX40
  OX40 agonism in co-culture: potent OX40 agonism

## CSCC[C@@H]1NC(=O)[C@@H]2CSCCC(=O)N3CN(CN(C3)C(=O)CCSC[C@H](NC(=O)CCOCCOCCOCCN(CCOCCOCCOCCn3cc(CCC(=O)NCCCC[C@H](NC(=O)[C@H](C)NC(=O)[C@@H]4CSCCC(=O)N5CN6CN(C5)C(=O)CCSC[C@H](NC(=O)[C@@H]5CCCN5C(=O)[C@H](CO)NC(=O)[C@H](Cc5ccc(O)cc5)NC(=O)[C@H](CC(C)C)NC(=O)[C@@H](NC(=O)[C@H](C)N)CSCCC6=O)C(=O)N[C@@H](Cc5c[nH]c6ccccc56)C(=O)N[C@@H](Cc5c[nH]cn5)C(=O)N5CCC[C@H]5C(=O)N[C@@H](CC(C)C)C(=O)N[C@@H](CC(N)=O)C(=O)N[C@@H](CC(=O)O)C(=O)N4)C(N)=O)nn3)CCOCCOCCOCCn3cc(CCC(=O)NCCCC[C@H](NC(=O)[C@H](C)NC(=O)[C@@H]4CSCCC(=O)N5CN6CN(C5)C(=O)CCSC[C@H](NC(=O)[C@@H]5CCCN5C(=O)[C@H](CO)NC(=O)[C@H](Cc5ccc(O)cc5)NC(=O)[C@H](CC(C)C)NC(=O)[C@@H](NC(=O)[C@H](C)N)CSCCC6=O)C(=O)N[C@@H](Cc5c[nH]c6ccccc56)C(=O)N[C@@H](Cc5c[nH]cn5)C(=O)N5CCC[C@H]5C(=O)N[C@@H](CC(C)C)C(=O)N[C@@H](CC(N)=O)C(=O)N[C@@H](CC(=O)O)C(=O)N4)C(N)=O)nn3)C(=O)N3CCC[C@H]3C(=O)N[C@@H](Cc3cccc4ccccc34)C(=O)N[C@H](CC(=O)O)C(=O)N2)C(=O)CCSC[C@@H](C(N)=O)NC(=O)[C@H](Cc2c[nH]c3ccccc23)NC(=O)[C@@H]2C[C@@H](O)CN2C(=O)[C@@H]2CCCN2C(=O)[C@H]([C@@H](C)O)NC(=O)[C@H](CO)NC(=O)[C@H](Cc2c[nH]c3ccccc23)NC(=O)[C@H](CC(=O)O)NC(=O)[C@H](CCCCNC(=N)N)NC1=O [BCY12967]
OX40
  OX40 agonism in co-culture: potent OX40 agonism

## CSCC[C@@H]1NC(=O)[C@@H]2CSCCC(=O)N3CN(CN(C3)C(=O)CCSC[C@H](NC(=O)CCOCCOCCOCCOCCOCCn3cc(CCC(=O)NCCCC[C@H](NC(=O)[C@H](C)NC(=O)[C@@H]4CSCCC(=O)N5CN6CN(C5)C(=O)CCSC[C@H](NC(=O)[C@@H]5CCCN5C(=O)[C@H](CO)NC(=O)[C@H](Cc5ccc(O)cc5)NC(=O)[C@H](CC(C)C)NC(=O)[C@@H](NC(=O)[C@H](C)NC(C)=O)CSCCC6=O)C(=O)N[C@@H](Cc5c[nH]c6ccccc56)C(=O)N[C@@H](Cc5c[nH]cn5)C(=O)N5CCC[C@H]5C(=O)N[C@@H](CC(C)C)C(=O)N[C@@H](CC(N)=O)C(=O)N[C@@H](CC(=O)O)C(=O)N4)C(N)=O)nn3)C(=O)N3CCC[C@H]3C(=O)N[C@@H](Cc3cccc4ccccc34)C(=O)N[C@H](CC(=O)O)C(=O)N2)C(=O)CCSC[C@@H](C(N)=O)NC(=O)[C@H](Cc2c[nH]c3ccccc23)NC(=O)[C@@H]2C[C@@H](O)CN2C(=O)[C@@H]2CCCN2C(=O)[C@H]([C@@H](C)O)NC(=O)[C@H](CO)NC(=O)[C@H](Cc2c[nH]c3ccccc23)NC(=O)[C@H](CC(=O)O)NC(=O)[C@H](CCCCNC(=N)N)NC1=O [BCY12721]
OX40
  OX40 agonism in co-culture: potent OX40 agonism
